Source: patent US8754106B2, “Macrocyclic inhibitors of hepatitis C virus” (Tibotec Pharmaceuticals Ltd., priority 2005, dated 2014)

Key:
[1] = system: HCV replicons (Huh-Luc cells, NS3-NS5B regions of HCV type Ib); test: Replicon assay (Huh-7 luc/neo cells, luciferase readout); type: cell-based; conditions: three days incubation, luciferase activity
Text: The compounds of formula (I) were examined for activity in the inhibition of HCV RNA replication in a cellular assay. […] The cellular assay was based on a bicistronic expression construct, as described by Lohmann et al. (1999) Science vol. 285 pp. 110-113 with modifications described by Krieger et al. (2001) Journal of Virology 75: 4614-4624, in a multi-target screening strategy. In essence, the method was as follows.
The assay utilized the stably transfected cell line Huh-7 luc/neo (hereafter referred to as Huh-Luc). This cell line harbors an RNA encoding a bicistronic expression construct comprising the wild type NS3-NS5B regions of HCV type Ib translated from an Internal Ribosome Entry Site (IRES) from encephalomyocarditis virus (EMCV), preceded by a reporter portion (FfL-luciferase), and a selectable marker portion (neo^R, neomycine phosphotransferase). The construct is bordered by 5′ and 3′ NTRs (non-translated regions) from HCV type Ib. Continued culture of the replicon cells in the presence of G418 (neo^R) is dependent on the replication of the HCV RNA. The stably transfected replicon cells that express HCV RNA, which replicates autonomously and to high levels, encoding inter alia luciferase, are used for screening the antiviral compounds.
The replicon cells were plated in 384 well plates in the presence of the test and control compounds which were added in various concentrations. Following an incubation of three days, HCV replication was measured by assaying luciferase activity (using standard luciferase assay substrates and reagents and a Perkin Elmer ViewLux™ ultraHTS microplate imager). Replicon cells in the control cultures have high luciferase expression in the absence of any inhibitor. The inhibitory activity of the compound on luciferase activity was monitored on the Huh-Luc cells, enabling a dose-response curve for each test compound.

HCV NS3/4A protease = HCV NS3/4A protease (Hepatitis C virus genotype 1a (isolate H77) (HCV), UniProt P27958); test: Inhibition assay (enzymatic assay), depsipeptide substrate hydrolysis; type: biochemical; conditions: full-length NS3 protease 1 nM, 25 μM NS4A cofactor, 0.5 μM substrate, competitive inhibition model
HCV NS3/4A protease, sequence (P27958 1027-1657): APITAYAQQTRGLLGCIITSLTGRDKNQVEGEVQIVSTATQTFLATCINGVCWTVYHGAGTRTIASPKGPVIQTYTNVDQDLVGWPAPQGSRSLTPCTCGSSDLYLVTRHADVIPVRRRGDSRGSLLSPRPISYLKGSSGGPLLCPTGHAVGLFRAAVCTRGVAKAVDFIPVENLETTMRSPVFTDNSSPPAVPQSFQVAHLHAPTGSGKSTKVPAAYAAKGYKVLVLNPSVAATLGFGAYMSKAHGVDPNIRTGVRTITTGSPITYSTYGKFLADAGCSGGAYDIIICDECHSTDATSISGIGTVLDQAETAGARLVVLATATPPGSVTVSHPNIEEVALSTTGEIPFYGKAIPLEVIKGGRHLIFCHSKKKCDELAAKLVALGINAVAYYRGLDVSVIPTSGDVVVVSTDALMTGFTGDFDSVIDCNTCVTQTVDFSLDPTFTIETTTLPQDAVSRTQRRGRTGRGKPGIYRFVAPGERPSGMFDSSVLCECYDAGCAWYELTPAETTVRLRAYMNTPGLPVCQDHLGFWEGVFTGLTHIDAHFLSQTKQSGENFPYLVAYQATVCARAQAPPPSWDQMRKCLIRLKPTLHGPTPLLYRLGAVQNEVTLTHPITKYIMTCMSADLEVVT
Method: [Landro, 1997 #Biochem 36 9340-9348]. […] The solutions were stored at −20° C. between measurements.
[Liu, 1999 Analytical Biochemistry 267 331-335].

[2] = Oral pharmacokinetics of Compound nr. 47 in rat with ritonavir boosting; type: in vivo, Sprague-Dawley rats; conditions: single oral 10 mg/kg Compound nr. 47 in 50% PEG400/water, boosted with 10 mg/kg ritonavir about 30 minutes before, plasma
Method: Oral pharmacokinetics of Compound nr. 47 in male and female Sprague-Dawley rats after a single dose at 10 mg/kg, using a formulation in 50% PEG400/water and the influence of “boosting” with 10 mg/kg ritonavir were investigated.
Four male and four female Sprague-Dawley (SD)-rats (approx. body weight 200-250 g) were randomly divided into 2 groups of 2 males and females each (boosted and non-boosted) based on body weight. […] The animals were fasted shortly before the trial. Drinking water remained available ad libitum.
Rats from the non-boosted group received a single oral 10 mg/kg dose of Compound nr. 47, formulated as a 3 mg/ml 50% PEG400/water at pH 8. Rats from the boosted group received a single oral dose of ritonavir, about 30 minutes before single oral dosing with 10 mg/kg of Compound nr. 47. The drug formulations were administered by oral gavage.
From each rat, a 0.5 ml blood sample was collected at 0.5 h, 1 h, 2 h, 4 h and 8 h after dosing. Plasma concentrations were determined using HPLC-MS. Results are shown in the table 2 below, expressed as fold change in pharmacokinetic parameter of the boosted group as compared to the non-boosted group.

| Cmax, fold change of the boosted group as compared to the non-boosted group [2] | Molecule | EC50 ([1]; Hepatitis C virus, Huh-7, 72 h) | Ki (HCV NS3/4A protease) | EC50 [1] |
| --- | --- | --- | --- | --- |
|  | COc1ccc2c(O[C@H]3C[C@H]4C(=O)NCCCCC/C=C\[C@@H]5C[C@@]5(C(=O)O)NC(=O)[C@@H]4C3)cc(-c3nc(C(C)C)cs3)nc2c1C [Compound 81] | 10 µM | 1000 nM |  |
| 2.2 fold | COc1ccc2c(O[C@@H]3C[C@H]4C(=O)N[C@]5(C(=O)NS(=O)(=O)C6CC6)C[C@H]5/C=C\CCCCN(C)C(=O)[C@@H]4C3)cc(-c3nc(C(C)C)cs3)nc2c1C [Compound 47, N-[17-[2-(4-isopropylthiazole-2-yl)-7-methoxy-8-methylquinolin-4-yloxy]-13-methyl-2,14-dioxo-3,13-diazatricyclo[13.3.0.0^4,6]octadec-7-ene-4-carbonyl](cyclopropyl)sulfonamide] |  |  |  |
|  | N-[[18-[2-[4-(isopropyl)thiazol-2-yl]-7-methoxy-8-methylquinolin-4-yloxy]-2,15-dioxo-3,14,16-triazatricyclo[14.3.0.0^4,6]nonadec-7-en-4-yl]carbonyl]-(cyclopropyl)sulfonamide [Compound 91] |  | 0.05 nM | 0.00854 µM |
|  | CCc1c(OC)ccc2c(O[C@@H]3C[C@H]4C(=O)N[C@]5(C(=O)O)C[C@H]5/C=C\CCCCN(C)C(=O)[C@@H]4C3)cc(-c3nc(C(C)C)cs3)nc12 [Compound 71] | 10 µM |  |  |
